Reference: US7824718B2, “Extract of Dioscorea opposita thunb showing neuronal cell-protecting activity for treating memory loss” (Tong Yang Moolsan Co., Ltd., priority 2005, dated 2010)

Test system: primary cultures of rat cortical neurons
Experiment: Cell protective activity against glutamate induced-neurotoxicity (MTT assay)
Type: cell-based, Sprague-Dawley rats
Experimental: The extracts of Dioscorea opposita were suspended in DMSO (Sigma Co., Ltd) and diluted to the extent that the final concentration reaches to <0.1%. Each suspension was filtered with 0.22 μm membrane filter (Millipore Co., Ltd.) to sterilize. After the concentrations of each fractions were adjusted to 100 μg/ml and 10 μg/ml, The test samples with various final concentration of various fractions were named as follows: 100 μg/ml of hexane layer (H100), 10 μg/ml of hexane layer (H10), 100 μg/ml of water layer (W100), 10 μg/ml of water layer (W10), 100 μg/ml of ethyl-acetate layer (E100), 10 μg/ml of ethylacetate layer (E10), 100 μg/ml of chloroform layer (C100), 10 μg/ml of chloroform layer (C10), 100 μg/ml of butanol layer (B100), 10 μg/ml of butanol layer (B10) respectively. The cultured cell was pretreated with each test sample 1 hour before the glutamate treatment and the protective activity of D. opposita against the death of cerebral cortex cells was assessed.
The tested fractions were dissolved in DMSO and diluted to the extent that the final concentration reaches to <0.1%. The matured cerebral cortex cells for 15 days were pretreated with the test fractions for 1 hour and then exposed to 100 μM glutamate. After further incubation for 24 hour, the neuronal survival was quantified using by MTT assay, which yields blue formazan products in living cells.

C[C@]12N[C@H](Cc3ccccc31)c1ccccc12 [MK801]
Protection activity (%) (MK801 positive control in Table 1, concentration not given): 79% | Relative protection (positive control at 10 μM, P<0.0001): 80.6±1.6%
